In paper PMC10817170, “Effect of an NHE3 inhibitor in combination with an NPT2b inhibitor on gastrointestinal phosphate absorption in Rodent models” (PLOS ONE, 2024):

Tests used:
NHE3 = test system: T1, NHE3; test: Sodium excretion in urine after oral NaH2PO4 bolus in mice; format: in vivo; conditions: sodium bolus plus 3 mg/kg po, urine 4 h, mean ± SEM
T1 construct: from tissue; host or cells: intestine of living C57Bl/6 mice
Protocol: The effect of LY3304000 on sodium and phosphate excretion in urine was also assessed in mice. A dosing solution of 3 mg/kg LY3304000 for a 10 mL/kg dose volume was formulated in 1% HEC. An NaH2PO4 dosing solution at a 690 mg/kg with a […] dosing volume was made in sterile water. Male C57Bl/6 mice were fasted for 4 hours with access to water and then orally dosed at 10 mL/kg with 1% HEC vehicle or 3 mg/kg LY3304000. Fifteen minutes later, mice were orally dosed with either sterile water or NaH2PO4 solution, and then immediately transferred to a mouse holder on a 96-well plate for spot urine collection. Urine samples were collected for 4 hours post sterile water or NaH2PO4 dose. Urinary sodium, creatinine, and phosphorus (as a measure of phosphate) were determined using a clinical biochemistry analyzer. The urinary sodium-to-creatinine ratio was calculated and compared between vehicle and LY3304000 treated groups.

[1] = test system: acute phosphate uptake into plasma; test: Acute radiolabeled phosphate uptake into plasma in rats; format: in vivo
Protocol: A dosing solution for a 10 mg/kg dose of LY3304000 using a 10 mL/kg dosing volume was made in 1% HEC vehicle. The subsequent dosing solutions for 3, 1, 0.3, 0.1, 0.03, 0.01, 0.003, and 0.001 mg/kg were prepared by serial dilutions with HEC. A Radiolabeled Phosphate Dosing Solution was made in a 16.25 mM Na2HPO4, 0.9% saline, pH 7.4, solution with the addition of about 2.5 μCi/mL radioactive phosphate (H3^33PO4, PerkinElmer) and filtered before dosing. Following 12-hour fasting with access to water, male SD rats were orally dosed at 10 mL/kg with either vehicle or varying doses of LY3304000. Fifteen minutes later, 2 mL of the Radiolabeled Phosphate Dosing Solution was dosed by oral gavage. This dose of phosphate was chosen because it approximates the rat equivalent to the amount of bioavailable phosphate in a human meal, 4 mg/kg phosphorus, or 320 mg phosphorus for an 80 kg person on a phosphate restricted diet. Fifteen minutes later, blood was collected by cardiac stick, and plasma was prepared. Radioactivity (dpm) in 50 μL plasma was measured by scintillation counting. To determine the total radioactivity dosed to each rat, the radioactivity in two 10-μL samples of the Radiolabeled Phosphate Dosing Solution was measured by scintillation counting. To calculate the total radioactivity recovered in plasma, it was assumed that total blood volume constitutes about 60% of the body weight and plasma constitutes about 55% of the total blood. The mole amount of phosphate uptake was calculated as the percentage of administered radiolabeled phosphate recovered in the plasma of vehicle or LY3304000 treated rats multiplied by total phosphate amount in the radiolabeled phosphate dosing solution. ED50 values were then determined with a 4-parameter logistic curve fitting model using GraphPad Prism. A 15-minute time point, post phosphate dosing, was chosen for collecting blood in the acute phosphate uptake studies in rats and mice (see below) to capture the initial rate of phosphate absorption. We wanted to avoid measurements at longer time points when plasma radiolabeled phosphate appears to be at a steady state.

[2] = test system: Madin-Darby Canine Kidney (MDCK) cell; test: MDCK cell uni-directional permeability assay; format: in vitro ADME; conditions: 20 µM, one hour, 24-well format
Protocol: LY3304000 has very low in vitro cell permeability. In a standard Madin-Darby Canine Kidney (MDCK) cell uni-directional permeability assay, measuring the percentage A to B (% A-B) transport in a 24-well format, the % A-B of LY330400 transport is 0.16 % at 20 µM for the assay duration of one hour.

[3] = Pharmacokinetics study after oral dosing; format: in vivo, rats
Protocol: Following oral dosing of the free base from of LY3304000 in a vehicle of 1% Hydroxyethylcellulose, 0.25% Polysorbate 80, and 0.05% Antifoam in purified water, the level of LY3304000 in rat blood 2.5-hour post dose was below the limit of quantification of LY330400 (0.815 nM with LC/MS method). Further characterization of the pharmacokinetic properties of LY3304000 was hampered by an inability to identify an appropriate vehicle for IV dosing.

- percentage A to B (% A-B) transport [2]: 0.16%
- detection in plasma following oral dosing ([3]; oral dosing): could not be detected
- concentration at 2.5 h ([3]; rat, whole blood, oral, free base, 2.5-hour post dose, below limit of quantification (LC/MS), read-out: level in rat blood): < 0.815 nM
Structure (SMILES): CN1Cc2c(Cl)cc(Cl)cc2[C@H](c2cccc(S(=O)(=O)NCCOCCOCCN/C(=N\C(N)=O)NCCCCN/C(=N/C(N)=O)NCCOCCOCCNS(=O)(=O)c3cccc([C@@H]4CN(C)Cc5c(Cl)cc(Cl)cc54)c3)c2)C1.Cl.Cl [LY3304000, (Z)-[[4-[[(Z)-N’-carbamoyl-N-[2-[2-[2-[[3-[(4S)-6,8-dichloro-2-methyl-3,4-dihydro-1H-isoquinolin-4-yl]phenyl]sulfonylamino]ethoxy]ethoxy]ethyl]carbamimidoyl]amino]butylamino]-[2-[2-[2-[[3-[(4S)-6,8-dichloro-2-methyl-3,4-dihydro-1H-isoquinolin-4-yl]phenyl]sulfonylamino]ethoxy]ethoxy]ethylamino]methylene]urea dihydrochloride]
- Urinary sodium-to-creatinine ratio (NHE3): 14.6 ± 1.7 mg/mg
- maximal inhibition of phosphate uptake [1]: 37%
- ED50 ([1]; Rattus norvegicus, po, 0.25 h, oral, plasma 15 min post 33P phosphate, read-out: ED50 (decrease of phosphate uptake)): 0.04 mg/kg
- Emax, Pi uptake ([1]; curve fit): 266.8 nmol
- ED50 (decrease of phosphate uptake) ([1]; oral, plasma 15 min post 33P phosphate): 0.041 mg/kg
- radiolabeled phosphate in plasma, maximal determined decrease ([1]; vehicle 416 nmoles): 264 nmol
